Results: ChEMBL document CHEMBL1201862, “PubChem BioAssay data set” (2004)
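Cells were grown in 96-well plates and exposed to each compound for 48 hours at five concentrations; endpoints were interpolated linearly between bracketing concentrations, or set to the highest concentration if not reached. GI50 is the concentration that inhibits growth by half.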 Active and inactive are the calls of the source. Cut-off read from the data, not from the text of the source: active = GI50 up to about 1.1 µM and inactive = higher.

Assays:
Test in all cases: NCI tumour cell line growth inhibition, 48 h
HCC 2998 = tested on: HCC 2998
NCI-H23 = tested on: NCI-H23
A549 = tested on: A549
OVCAR-3 = tested on: OVCAR-3
CCRF-CEM = tested on: CCRF-CEM
SW-620 = tested on: SW-620
SN12C = tested on: SN12C
HOP-92 = tested on: HOP-92
NCI-H460 = tested on: NCI-H460
SNB-75 = tested on: SNB-75
UACC-257 = tested on: UACC-257
SNB-19 = tested on: SNB-19
HT-29 = tested on: HT-29
IGROV-1 = tested on: IGROV-1
NCI-H522 = tested on: NCI-H522
SK-OV-3 = tested on: SK-OV-3
SK-MEL-28 = tested on: SK-MEL-28

Measured: GI50

CCOc1ccc(NC(=O)C2=C(C)NC(C)=C(C(=O)Nc3ccc(OCC)cc3)C2c2ccc([N+](=O)[O-])cc2)cc1
inactive: HCC 2998 22.1 µM | NCI-H23 28.2 µM | A549 17.9 µM | OVCAR-3 30.3 µM | CCRF-CEM 13.3 µM | SW-620 22.3 µM | SN12C 42.9 µM | HOP-92 12.9 µM | NCI-H460 22.9 µM | SNB-75 29.4 µM | UACC-257 39.2 µM | SNB-19 36 µM | HT-29 33.9 µM | IGROV-1 49 µM | NCI-H522 22.6 µM | SK-OV-3 > 100 µM | SK-MEL-28 34.2 µM

COC(=O)c1nc(NC#N)nc(O)c1C
inactive: HCC 2998 > 100 µM | NCI-H23 > 78.7 µM | A549 > 89.5 µM | OVCAR-3 > 100 µM | CCRF-CEM 78 µM | SW-620 > 100 µM | SN12C > 100 µM | HOP-92 50.2 µM | NCI-H460 > 100 µM | SNB-75 > 53.3 µM | UACC-257 > 100 µM | SNB-19 > 67.9 µM | HT-29 > 100 µM | IGROV-1 > 72.9 µM | NCI-H522 > 80.4 µM | SK-OV-3 > 100 µM | SK-MEL-28 > 100 µM

CC(=O)OCCC(O[Si](c1ccccc1)(c1ccccc1)C(C)(C)C)C(C)(C)O (centres undefined)
inactive: NCI-H23 24.7 µM | A549 34.5 µM | OVCAR-3 21 µM | CCRF-CEM 24.6 µM | SW-620 54.8 µM | SN12C 18.3 µM | HOP-92 24.6 µM | NCI-H460 32.1 µM | SNB-75 35.6 µM | UACC-257 26.5 µM | SNB-19 63.1 µM | HT-29 27.4 µM | IGROV-1 36.3 µM | NCI-H522 20 µM | SK-OV-3 42.7 µM | SK-MEL-28 51.2 µM

Cc1ccc(/C=N/NS(=O)(=O)c2ccccc2)cc1C
inactive: HCC 2998 > 100 µM | NCI-H23 > 100 µM | A549 > 100 µM | OVCAR-3 > 100 µM | CCRF-CEM > 100 µM | SW-620 > 100 µM | SN12C > 100 µM | HOP-92 > 100 µM | NCI-H460 > 100 µM | SNB-75 > 100 µM | UACC-257 > 100 µM | HT-29 > 100 µM | IGROV-1 51.5 µM | SK-OV-3 > 100 µM | SK-MEL-28 > 100 µM

O=C1C2c3[nH]c4ccccc4c3C3CCCCCCC3C2C(=O)N1c1ccccc1 (centres undefined)
inactive: HCC 2998 12.3 µM | NCI-H23 21 µM | A549 8.65 µM | OVCAR-3 4.35 µM | CCRF-CEM 10.2 µM | SW-620 8.61 µM | SN12C 6.03 µM | NCI-H460 4.91 µM | SNB-75 2.23 µM | HT-29 19.9 µM | IGROV-1 > 10 µM | SK-OV-3 2.44 µM | SK-MEL-28 14.6 µM

CCOC(=O)C12CN(C34CC5CC(CC(C5)C3)C4)CC(C(=O)OCC)(C1=O)C(c1ccccc1)OC2c1ccccc1 (centres undefined)
inactive: HCC 2998 > 100 µM | NCI-H23 47.4 µM | A549 > 100 µM | OVCAR-3 > 100 µM | CCRF-CEM 44.3 µM | SW-620 > 100 µM | SN12C > 10 µM | HOP-92 2.04 µM | NCI-H460 > 100 µM | SNB-75 39.7 µM | UACC-257 > 100 µM | SNB-19 > 100 µM | HT-29 61 µM | IGROV-1 > 100 µM | SK-OV-3 > 100 µM | SK-MEL-28 > 100 µM

O=C1C2CCC(C2)C12CC1(c3ccccc3)C(=O)c3ccccc3N1O2 (centres undefined)
inactive: HCC 2998 > 100 µM | NCI-H23 > 100 µM | A549 > 100 µM | CCRF-CEM > 100 µM | SW-620 > 100 µM | SN12C > 100 µM | HOP-92 42.7 µM | SNB-75 > 100 µM | UACC-257 > 100 µM | SNB-19 > 100 µM | HT-29 > 100 µM | IGROV-1 > 100 µM | NCI-H522 > 100 µM | SK-OV-3 > 100 µM | SK-MEL-28 > 100 µM

CCOC(=O)C(C(CC(=O)OC)NC(=O)OCc1ccccc1)C1(C)OCCO1 (centres undefined)
inactive: HCC 2998 > 100 µM | NCI-H23 > 100 µM | A549 > 100 µM | OVCAR-3 > 100 µM | CCRF-CEM > 100 µM | SW-620 > 100 µM | SN12C > 100 µM | NCI-H460 > 100 µM | SNB-75 41.1 µM | UACC-257 > 100 µM | SNB-19 > 100 µM | HT-29 > 100 µM | IGROV-1 > 100 µM | SK-MEL-28 > 100 µM

C[C@@H](NC1CCCC[C@@H]1O)c1ccccc1 (some centres undefined)
inactive: HCC 2998 > 100 µM | A549 > 100 µM | OVCAR-3 > 100 µM | CCRF-CEM > 100 µM | SW-620 > 100 µM | SN12C > 100 µM | HOP-92 > 100 µM | NCI-H460 > 100 µM | SNB-75 98.4 µM | UACC-257 > 100 µM | SNB-19 > 100 µM | HT-29 > 100 µM | IGROV-1 > 100 µM | SK-OV-3 > 100 µM | SK-MEL-28 > 100 µM

C[C@H](O)CCC(=O)c1ccoc1
inactive: HCC 2998 > 66.1 µM | NCI-H23 > 100 µM | A549 > 100 µM | OVCAR-3 > 100 µM | CCRF-CEM > 100 µM | SW-620 > 100 µM | SN12C > 100 µM | HOP-92 > 100 µM | NCI-H460 > 100 µM | SNB-75 > 34.5 µM | UACC-257 > 100 µM | SNB-19 > 100 µM | HT-29 > 100 µM | IGROV-1 > 100 µM | NCI-H522 > 100 µM | SK-OV-3 > 100 µM | SK-MEL-28 > 100 µM

CC(=O)OCCOCBr
inactive: A549 > 100 µM | OVCAR-3 > 100 µM | CCRF-CEM > 100 µM | SW-620 > 100 µM | SN12C > 100 µM | HOP-92 > 100 µM | NCI-H460 > 100 µM | SNB-75 > 100 µM | UACC-257 > 100 µM | HT-29 > 100 µM | IGROV-1 > 100 µM | NCI-H522 > 100 µM | SK-OV-3 > 100 µM | SK-MEL-28 > 100 µM

Nc1n/c(=N\c2ccccc2)ss1
inactive: HCC 2998 > 100 µM | NCI-H23 > 100 µM | A549 > 100 µM | OVCAR-3 > 100 µM | SW-620 > 100 µM | SN12C > 100 µM | HOP-92 > 100 µM | NCI-H460 > 100 µM | SNB-75 > 100 µM | UACC-257 > 100 µM | SNB-19 > 100 µM | HT-29 > 100 µM | IGROV-1 > 100 µM | NCI-H522 > 100 µM | SK-OV-3 > 100 µM | SK-MEL-28 > 100 µM

NC(=S)N1N=C2c3ccccc3CC[C@@H]2[C@@H]1c1ccccc1
inactive: HCC 2998 6.78 µM | NCI-H23 4.68 µM | A549 8.59 µM | OVCAR-3 2.92 µM | CCRF-CEM 3.24 µM | SW-620 3.84 µM | SN12C 5.05 µM | HOP-92 11.2 µM | NCI-H460 5.42 µM | SNB-75 3.62 µM | UACC-257 9.29 µM | SNB-19 5.77 µM | HT-29 3.15 µM | IGROV-1 12.6 µM | NCI-H522 1.5 µM | SK-OV-3 9.73 µM | SK-MEL-28 9.84 µM

COc1ccccc1NC(=O)CC(=O)n1nc(C)c(/N=N/c2ccccc2C(=O)O)c1C
inactive: HCC 2998 > 100 µM | NCI-H23 88.9 µM | A549 > 100 µM | OVCAR-3 73.1 µM | CCRF-CEM > 100 µM | SW-620 > 100 µM | SN12C > 100 µM | NCI-H460 > 100 µM | SNB-75 32.1 µM | UACC-257 > 100 µM | SNB-19 > 100 µM | HT-29 > 100 µM | IGROV-1 > 100 µM | NCI-H522 43.9 µM | SK-OV-3 > 100 µM | SK-MEL-28 > 100 µM

CC(C)OCN/C(N)=N\C#N
inactive: HCC 2998 > 100 µM | NCI-H23 > 100 µM | A549 > 100 µM | OVCAR-3 > 100 µM | SW-620 17 µM | SN12C > 100 µM | HOP-92 > 100 µM | NCI-H460 > 100 µM | SNB-75 > 100 µM | UACC-257 > 100 µM | SNB-19 > 100 µM | HT-29 43.8 µM | IGROV-1 > 100 µM | NCI-H522 > 100 µM | SK-OV-3 > 100 µM | SK-MEL-28 > 100 µM

Cc1ccc(NC(=O)OCC(COc2ccc(Cl)cc2Cl)OC(=O)Nc2ccc(C)cc2)cc1 (centres undefined)
inactive: HCC 2998 > 100 µM | NCI-H23 > 100 µM | A549 > 100 µM | OVCAR-3 80.2 µM | SW-620 > 100 µM | SN12C > 100 µM | HOP-92 53.7 µM | NCI-H460 > 100 µM | SNB-75 27 µM | UACC-257 > 100 µM | SNB-19 47.6 µM | HT-29 > 100 µM | IGROV-1 > 100 µM | SK-OV-3 > 100 µM | SK-MEL-28 > 100 µM

CC/C=C/c1cc2cc[nH]c2c2c1C(C)C[C@@H]2C (some centres undefined)
inactive: HCC 2998 > 10 µM | NCI-H23 21.4 µM | A549 35.9 µM | OVCAR-3 18.9 µM | CCRF-CEM 23.7 µM | SW-620 31.9 µM | SN12C 18.9 µM | HOP-92 24.2 µM | NCI-H460 25.1 µM | SNB-75 27.4 µM | UACC-257 32.8 µM | HT-29 28.6 µM | IGROV-1 40.4 µM | NCI-H522 18.1 µM | SK-OV-3 63.8 µM | SK-MEL-28 22.8 µM

O=C(CC1(O)C(=O)Nc2ccccc21)c1ccc(Cl)cc1Cl (centres undefined)
inactive: NCI-H23 > 100 µM | A549 > 100 µM | OVCAR-3 > 100 µM | SW-620 > 100 µM | SN12C > 100 µM | HOP-92 > 100 µM | SNB-75 > 100 µM | UACC-257 > 100 µM | SNB-19 > 100 µM | HT-29 > 100 µM | IGROV-1 > 100 µM | NCI-H522 > 100 µM | SK-OV-3 > 100 µM | SK-MEL-28 > 100 µM
